Experimental data as given in US6900182B1, “Inositolphosphoglycan and ribose for treatment of ischaemia-reperfusion injury” (Sylus Pharmaceuticals Ltd., priority 1998, dated 2005).

Assays:
[1] = test system: rat heart preparations; test: tissue PRPP concentration of rat heart preparations in anoxic conditions; settings: ribose added to the medium
Source text: Perhaps of greater significance was our observation of the decline in cellular PRPP in a range of tissues, including heart, in experimental diabetes (see Table 1).

[2] = test system: myocardial adenine nucleotides; settings: cited from earlier work
[3] = test system: IPG P-type; test: extractable IPG P-type from tissues before and after insulin (PDH phosphatase assay); format: in vivo, rats; settings: 2 minutes after injection with insulin
Protocol: FIGS. 4C and 4D show the steady state concentration and the effect of insulin on extractable IPG P-type from heart and other tissues from adult male rats. […] The solid columns show results in the absence of insulin, while the hatched columns show results 2 minutes after injection with insulin. 1 unit is the amount of P-type IPG causing a 50% increase in the activity of PDH phosphatase or a 50% decrease in the activity of cAMP dependent protein kinase.
Under anoxic conditions, this is difficult since the enzyme PDH kinase is activated. The action of this enzyme is to inactivate the PDH complex, which is involved in the biosynthesis of acetyl-CoA and NADH. The NADH so generated in the reperfusion period is oxidized by the electron transport chain to generate ATP. The acetyl-CoA is a substrate for the Krebs cycle in which one glucose can be oxidized to 36 ATPs via the generation of further NADH. The action of IPG-P type mediators is to activate PDH phosphatase which counteracts the PDH kinase and allows for activation of the PDH complex.

Molecule	tissue PRPP concentration [1]	restitution of myocardial adenine nucleotides ([2]; Zimmer (1980))	global heart function ([2]; overloaded and catecholamine-stimulated heart and infarcted heart rat models, Zimmer (1996))	normalisation of depressed heart function ([2]; rats, Zimmer (1983))	IPG P-type activity recovered from tissue upon insulin infusion ([3]; adipose tissue)	IPG P-type activity recovered from tissue upon insulin infusion ([3]; brain)	IPG P-type activity recovered from tissue upon insulin infusion ([3]; heart)	IPG P-type activity recovered from tissue upon insulin infusion ([3]; kidney)	IPG P-type activity recovered from tissue upon insulin infusion ([3]; muscle)
O=C[C@H](O)[C@H](O)[C@H](O)CO [ribose]	partially restored	accelerated	improvement in global heart function	accelerated					
insulin					decreased activity	decreased activity	decreased activity	increase in activity	increase in activity
